Earlier results on two compounds are cited in patent publication US7807193B2 (priority 2002, dated 2010).

The structures appear in SMILES notation.

For data set [1] the following is noted: patients having adult onset diabetes, drug treatment therapy versus insulin treatment.
Another data set concerns ob/ob mice. The note with it: homozygous diabetic mouse model (ob/ob); U.S. application 20020037861 A1.

With `CN(C)C(=N)N=C(N)N` [metformin], in data set [1], the Mortality rates is 8%.

Turning to `CC1(C)O[C@@H]2[C@@H](CO[C@@]3(COS(N)(=O)=O)OC(C)(C)O[C@@H]23)O1` [topiramate, 2,3:4,5-bis-O-(1-methylethylidene)-β-D-fructopyranose sulfamate], the “Levels of blood glucose, triglycerides, insulin and glycosylated hemoglobin versus control ob/ob mice not given topiramate” value in the data set with ob/ob mice is given as “significantly lower”.
